Structures can show the parent of a compound that is named as a salt.
Columns and labels:
rat FAAH = biological target: T1, rat FAAH (Rattus norvegicus, UniProt P97612); test: Assay Method 2: FAAH assay, 3H-anandamide hydrolysis in homogenate of SK-N-MC cells transfected with rat FAAH; type: biochemical; conditions: average of results, > = solubility limit or highest concentration tested
T1 sequence (P97612 1-579): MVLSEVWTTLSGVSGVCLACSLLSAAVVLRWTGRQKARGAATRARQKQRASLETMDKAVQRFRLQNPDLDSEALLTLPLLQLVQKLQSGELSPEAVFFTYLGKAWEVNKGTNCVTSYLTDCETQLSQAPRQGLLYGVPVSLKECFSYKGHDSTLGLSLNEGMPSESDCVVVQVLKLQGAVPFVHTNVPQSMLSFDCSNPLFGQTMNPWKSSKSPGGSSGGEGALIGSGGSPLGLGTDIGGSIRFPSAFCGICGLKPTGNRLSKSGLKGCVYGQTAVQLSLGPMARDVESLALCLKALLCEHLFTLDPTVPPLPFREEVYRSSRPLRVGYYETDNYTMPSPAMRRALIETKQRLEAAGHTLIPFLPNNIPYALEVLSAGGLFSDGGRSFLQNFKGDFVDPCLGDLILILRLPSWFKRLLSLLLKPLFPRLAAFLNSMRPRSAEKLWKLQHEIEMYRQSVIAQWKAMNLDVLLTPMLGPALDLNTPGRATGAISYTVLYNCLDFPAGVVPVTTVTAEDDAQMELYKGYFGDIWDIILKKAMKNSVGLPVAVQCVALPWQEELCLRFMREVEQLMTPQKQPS
Summary of the method: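 Homogenate of SK-N-MC cells stably transfected with rat FAAH cDNA (G418-selected clones) in pH 9 Tris/EDTA/glycerol/Triton buffer. Incubated with compound and 80 nM final [3H]-anandamide for 1 h at rt. Released [3H]-ethanolamine separated from substrate on activated charcoal filters and counted by scintillation.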

FAAH = biological target: T2, FAAH (Homo sapiens, UniProt O00519); test: Assay Method 1: FAAH assay, 3H-anandamide hydrolysis in homogenate of T84 cells or SK-N-MC cells transfected with human FAAH; type: biochemical; conditions: average of results, > = solubility limit or highest concentration tested
T2 sequence (O00519 1-579): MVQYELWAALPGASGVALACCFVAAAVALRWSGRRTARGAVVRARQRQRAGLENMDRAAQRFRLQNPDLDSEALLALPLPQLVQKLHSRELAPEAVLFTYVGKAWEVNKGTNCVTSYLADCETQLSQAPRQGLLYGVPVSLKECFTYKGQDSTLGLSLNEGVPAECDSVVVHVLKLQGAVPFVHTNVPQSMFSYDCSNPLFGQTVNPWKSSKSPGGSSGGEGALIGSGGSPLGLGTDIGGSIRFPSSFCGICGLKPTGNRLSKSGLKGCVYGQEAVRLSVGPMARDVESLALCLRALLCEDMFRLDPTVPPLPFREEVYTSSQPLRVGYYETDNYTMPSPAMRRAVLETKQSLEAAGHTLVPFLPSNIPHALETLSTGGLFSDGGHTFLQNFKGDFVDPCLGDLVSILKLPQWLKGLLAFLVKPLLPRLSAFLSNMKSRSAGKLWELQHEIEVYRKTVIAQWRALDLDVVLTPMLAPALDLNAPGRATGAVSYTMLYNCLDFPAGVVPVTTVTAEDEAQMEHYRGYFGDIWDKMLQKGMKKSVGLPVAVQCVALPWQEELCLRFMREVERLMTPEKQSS
Summary of the method: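 Homogenates of T84 cells or of SK-N-MC cells stably transfected with human FAAH (G418-selected) were prepared in pH 9 Tris/EDTA/glycerol/Triton buffer. They were incubated with compound and 80 nM final ^3H-anandamide for 1 h at rt. Released ^3H-ethanolamine was separated on activated charcoal and counted by scintillation.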

SMILES	IC50 (rat FAAH) [nM]	IC50 (FAAH) [nM]
O=C(Nc1ccon1)N1CCN(Cc2ccc(Br)cc2)CC1 [Example 148, 4-(4-Bromo-benzyl)-piperazine-1-carboxylic acid isoxazol-3-ylamide]	> 10000	5000
O=C(Nc1nnn[nH]1)N1CCN(Cc2ccc3ccccc3c2)CC1 [Example 176, 4-(Naphthalen-2-ylmethyl)-N-1H-tetrazol-5-ylpiperazine-1-carboxamide]	450	2000
O=C(Nc1cccs1)N1CCN(Cc2ccc3c(c2)OC(F)(F)O3)CC1 [Example 7, 4-(2,2-Difluoro-benzo[1,3]dioxol-5-ylmethyl)-piperazine-1-carboxylic acid thiophen-2-ylamide]	2400	2000
O=C(Nc1noc2ccccc12)N1CCN(Cc2cccc(C#Cc3cc(Cl)cc(Cl)c3)c2)CC1 [Example 83, N-1,2-Benzisoxazol-3-yl-4-{3-[(3,5-dichlorophenyl)ethynyl]benzyl}-piperazine-1-carboxamide]	20	35
COC(=O)c1ccccc1C#Cc1cccc(CN2CCN(C(=O)Nc3noc4ccccc34)CC2)c1 [Example 87, Methyl 2-[(3-{[4-(1,2-benzisoxazol-3-ylcarbamoyl)piperazin-1-yl]methyl}phenyl)ethynyl]benzoate]	480	2000
O=C(Nc1noc2ccccc12)N1CCN(Cc2cccc(Oc3cccc(Cl)c3)c2)CC1 [Example 127, N-1,2-Benzisoxazol-3-yl-4-[3-(3-chlorophenoxy)benzyl]piperazine-1-carboxamide]	40	40
O=C(Nc1cnccn1)N1CCN(Cc2cccc(Oc3cccc(OC(F)(F)F)c3)c2)CC1 [Example 242, N-Pyrazin-2-yl-4-{3-[3-(trifluoromethoxy)phenoxy]benzyl}piperazine-1-carboxamide]	50	9
N#Cc1ccc(Oc2cccc(CN3CCN(C(=O)Nc4ccon4)CC3)c2)cc1C(F)(F)F [Example 163, 4-{3-[4-Cyano-3-(trifluoromethyl)phenoxy]benzyl}-N-isoxazol-3-ylpiperazine-1-carboxamide]	> 10000	1000
O=C(Nc1nn[nH]n1)N1CCN(Cc2ccc(Cl)c(Cl)c2)CC1 [Example 182, 4-(3,4-Dichloro-benzyl)-piperazine-1-carboxylic acid (2H-tetrazol-5-yl)-amide]	340	1700
O=C(Nc1cccnn1)N1CCN(Cc2cccc(C#Cc3ccccc3Cl)c2)CC1 [Example 79, 4-{3-[(2-Chlorophenyl)ethynyl]benzyl}-N-pyridazin-3-ylpiperazine-1-carboxamide]	320	46
O=C(Nc1ccon1)N1CCN(Cc2cccc(Oc3ccc(C(F)(F)F)cc3)c2)CC1 [Example 161, N-isoxazol-3-yl-4-{3-[4-(trifluoromethyl)phenoxy]benzyl}piperazine-1-carboxamide]	160	4
O=C(Nc1cccnn1)N1CCN(Cc2ccc(Cl)c(Cl)c2)CC1 [Example 199, 4-(3,4-Dichlorobenzyl)-N-pyridazin-3-ylpiperazine-1-carboxamide]	590	280
O=C(Nc1noc2ccccc12)N1CCN(Cc2ccc(Br)c(Br)c2)CC1 [Example 121, N-1,2-Benzisoxazol-3-yl-4-(3,4-dibromobenzyl)piperazine-1-carboxamide]	25	17
O=C(Nc1noc2ccccc12)N1CCN(Cc2cccc(C#Cc3cc(Cl)ccc3Cl)c2)CC1 [Example 84, N-1,2-Benzisoxazol-3-yl-4-{3-[(2,5-dichlorophenyl)ethynyl]benzyl}-piperazine-1-carboxamide]	295	16
O=C(Nc1noc2ccccc12)N1CCN(Cc2cccc(C#Cc3ccsc3)c2)CC1 [Example 77, N-1,2-Benzisoxazol-3-yl-4-[3-(thiophen-3-ylethynyl)benzyl]-piperazine-1-carboxamide]	64	12
Cc1ccccc1CCc1cccc(CN2CCN(C(=O)Nc3noc4ccccc34)CC2)c1 [Example 94, 4-[3-(2-o-Tolyl-ethyl)-benzyl]-piperazine-1-carboxylic acid benzo[d]isoxazol-3-ylamide hydrochloride salt]	630	380
O=C(Nc1noc2ccccc12)N1CCN(Cc2ccc3[nH]ccc3c2)CC1 [Example 118, N-1,2-Benzisoxazol-3-yl-4-(1H-indol-5-ylmethyl)piperazine-1-carboxamide]	8000	1800
O=C(Nc1ccc2ncsc2c1)N1CCC(Cc2ccc3ccccc3c2)CC1 [Example 19, 4-Naphthalen-2-ylmethyl-piperidine-1-carboxylic acid benzothiazol-6-ylamide]	55	1500
O=C(Nc1ccon1)N1CCN(Cc2cccc(Oc3ccc(F)c(C(F)(F)F)c3)c2)CC1 [Example 156, 4-{3-[4-Fluoro-3-(trifluoromethyl)phenoxy]benzyl}-N-isoxazol-3-ylpiperazine-1-carboxamide]	5000	43
O=C(Nc1noc2ccccc12)N1CCN(Cc2cccc(Oc3ccc(Cl)c(Cl)c3)c2)CC1 [Example 50, 4-[3-(3,4-Dichloro-phenoxy)-benzyl]-piperazine-1-carboxylic acid benzo[d]isoxazol-3-ylamide trifluoroacetic acid salt]	18	42
O=C(Nc1noc2ccccc12)N1CCN(Cc2ccc(F)c(OC(F)(F)F)c2)CC1 [Example 106, N-1,2-Benzisoxazol-3-yl-4-[4-fluoro-3-(trifluoromethoxy)benzyl]-piperazine-1-carboxamide]	27	80
N#Cc1ccc(Oc2cccc(CN3CCN(C(=O)Nc4nn[nH]n4)CC3)c2)cc1C(F)(F)F [Example 170, 4-{3-[4-Cyano-3-(trifluoromethyl)phenoxy]benzyl}-N-1H-tetrazol-5-ylpiperazine-1-carboxamide]	1800	1200
N#Cc1ccc(Oc2cccc(CN3CCN(C(=O)Nc4cnccn4)CC3)c2)cc1C(F)(F)F [Example 236, 4-{3-[4-Cyano-3-(trifluoromethyl)phenoxy]benzyl}-N-Pyrazin-2-ylpiperazine-1-carboxamide]	8000	300
O=C(Nc1ccon1)N1CCN(Cc2cccc(Oc3cccc(Cl)c3)c2)CC1 [Example 136, 4-[3-(3-Chlorophenoxy)benzyl]-N-isoxazol-3-ylpiperazine-1-carboxamide]	1000	55
O=C(Nc1noc2ccccc12)N1CCN(Cc2cccc(C#Cc3ccccc3)c2)CC1 [Example 133, N-1,2-Benzisoxazol-3-yl-4-{[3-(phenylethynyl)phenyl]methyl}piperazine-1-carboxamide]	115	24
O=C(Nc1noc2ccccc12)N1CCN(Cc2cccc(C#Cc3ccccc3OC(F)(F)F)c2)CC1 [Example 82, N-1,2-Benzisoxazol-3-yl-4-(3-{[2-(trifluoromethoxy)phenyl]-ethynyl}benzyl)-piperazine-1-carboxamide]	256	272
O=C(Nc1noc2ccccc12)N1CCN(Cc2cccc(Oc3ccc(Cl)c(F)c3)c2)CC1 [Example 206, 4-[3-(4-Chloro-3-fluoro-phenoxy)-benzyl]-piperazine-1-carboxylic acid benzo[d]isoxazol-3-ylamide]	21	11
O=C(Nc1cccc2nsnc12)N1CCN(Cc2cccc(OC(F)(F)F)c2)CC1 [Example 41, 4-(3-Trifluoromethoxy-benzyl)-piperazine-1-carboxylic acid benzo[1,2,5]thiadiazol-4-ylamide trifluoroacetic acid salt]	141	48

From patent US20090062294A1, “HETEROARYL-SUBSTITUTED UREA MODULATORS OF FATTY ACID AMIDE HYDROLASE” (priority 2007, published 2009)
